Assays:
Type in all cases: functional, cell-based
[1] = Cytotoxicity against vincristine-resistant human KB/VJ300 cells
[2] = Cytotoxicity against vincristine-resistant human KB/VJ300 cells in presence of 0.121 uM vincristine
[3] = tested on: KB; test: Cytotoxicity against vincristine-sensitive human KB cells
[4] = Cytotoxicity against vincristine-resistant human KB/VJ300 cells in presence of 0.1 ug/ml vincristine

## CCC1=CN2CC[C@]34c5ccccc5-n5c3c(cc(C(N)=O)c5=O)[C@H]1C[C@H]24 [LEUCONICINE C]
[1]
  IC50: > 25 µg/mL
[2]
  IC50: 10.8 µM
[3]
  IC50: > 25 µg/mL
[4]
  IC50: 3.86 µg/mL

## CCC1=CN2CC[C@]34c5ccccc5-n5c3c(cc(C(=O)O)c5=O)[C@H]1C[C@H]24 [LEUCONICINE E]
[1]
  IC50: > 25 µg/mL
[2]
  IC50: 37.6 µM
[3]
  IC50: > 25 µg/mL
[4]
  IC50: 13.5 µg/mL

## CC[C@@H]1CN2CC[C@]34c5ccccc5-n5c3c(cc(C(N)=O)c5=O)[C@H]1C[C@H]24 [LEUCONICINE A]
[1]
  IC50: > 25 µg/mL
[2]
  IC50: 7.12 µM
[3]
  IC50: > 25 µg/mL
[4]
  IC50: 2.57 µg/mL

## CC[C@@]12CCCN3CCc4c(n(c5ccccc45)[C@H](O)[C@@H]1O)[C@H]32
[1]
  IC50: > 25 µg/mL
[3]
  IC50: > 25 µg/mL
[4]
  IC50: > 25 µg/mL

## CC[C@@H]1C[N+]2([O-])CC[C@]34c5ccccc5-n5c3c(cc(C(N)=O)c5=O)[C@H]1C[C@@H]42 (some centres undefined) [LEUCONICINE F]
[1]
  IC50: > 25 µg/mL
[3]
  IC50: > 25 µg/mL
[4]
  IC50: > 25 µg/mL

## CCC1=CN2CC[C@]34c5ccccc5-n5c3c(cc(C(=O)OC)c5=O)[C@H]1C[C@H]24 [MELODININE B]
[1]
  IC50: > 25 µg/mL
[2]
  IC50: 12.3 µM
[3]
  IC50: > 25 µg/mL
[4]
  IC50: 4.62 µg/mL

## CC[C@@H]1C[N+]2([O-])CC[C@]34c5ccccc5-n5c3c(cc(C(=O)OC)c5=O)[C@H]1C[C@@H]42 (some centres undefined) [LEUCONICINE G]
[1]
  IC50: > 25 µg/mL
[3]
  IC50: > 25 µg/mL
[4]
  IC50: > 25 µg/mL

## CC[C@@H]1CN2CC[C@]34c5ccccc5-n5c3c(cc(C(=O)OC)c5=O)[C@H]1C[C@H]24 [LEUCONICINE B]
[1]
  IC50: > 25 µg/mL
[2]
  IC50: 5.27 µM
[3]
  IC50: > 25 µg/mL
[4]
  IC50: 1.98 µg/mL
